Assay [1] concerns MCF7 cells. The experiment in a line: Counting of live cells treated with GTC365. The class given is cell-based, human. As to conditions: low dose, nine days. On the procedure:
Counting of live cells treated with GTC365. MCF7 cells were treated with DMSO or 0.5 μM of GTC365. Cells were trypsinized and then subjected to trypan blue exclusion staining for counting of live cells using microscopy every three days. Afterward, 70% of cells were recultured with fresh media and DMSO or GTC365. Relative cell numbers compared to the DMSO were obtained.
(§1) Since knockdown of hTERT arrests the cell cycle in the G0/G1 phase, the effects of GTC365 on the cell cycle were evaluated. GTC365 increased the population of the G0/G1 (from 57% to 71%) and G2/M phases (from 10% to 19%), whereas the S-phase was decreased (from 33% to 10%) in a dose-dependent manner with 48 h treatment. […] It is known that various anticancer drugs induce SLP in different cancer cells, leading to mitotic catastrophe as well as apoptotic cell death. Doxorubicin, one of the representative anticancer drugs, induced apoptosis and mitotic catastrophe accompanied by multiple nuclei with SLP. GTC365, like doxorubicin, appears to arrest cell proliferation and induce cell death, apoptosis, or mitotic catastrophe through downregulation of hTERT.

The test system of assay [2] is i-motif formed from the full-length C-rich strand of hTERT promoter. The experiment in a line: CD melting (Tm), i-motif. It counts as binding, human. Conditions: pH 6.6. On the procedure:
Circular dichroism. Oligomers of WT, G124A, G124/125A, G138/139A and G146A were synthesized and HPSF-purified by MGW Operon, Inc. For CD analysis, oligomers (5 μM) in a buffer containing 10 mM Tris-HCl (pH 7.5) and 140 mM KCl were annealed. For the CD analysis of the complex of oligomers and compounds, oligomers (5 μM) in a buffer containing 10 mM Tris-HCl (pH 7.5) and 5 mM KCl for GTC365 or 1 mM KCl for BRACO-19 were annealed. Oligomers and GTC365 or BRACO-19 were incubated overnight at room temperature. For the full-length of C-rich strand, the oligomer in a buffer of 10 mM Na cacodylate (pH 6.6) was annealed and then incubated with GTC365 overnight. CD analysis was conducted on a Jasco 810 spectropolarimeter (Jasco, Easton, Md.) using a quartz cell with 1 mm of path length, 1 nm of band width, and 1 s of response time for spectra at 20° C. Melting curves for the determination of Tm were obtained by recording ellipticity at 262 nm with increasing temperatures from 25° C. to 95° C. at a rate of 1.6° C./min. Tm of the C-rich strand with GTC365 was obtained from the CD signal at 286 nm within 10-60° C.
In contrast, BRACO-19 increased the Tm of telomeric G-quadruplex by ˜60% compared to that of the hTERT G-quadruplex at 0.5 and 1 equiv. A summary of the comparative Tms of GTC365 and BRACO-19 in hTERT and telomeric DNA is shown below.

In assay [3] the test system is MCF7 cells. The experiment in a line: Cell cycle analysis by PI staining. It counts as cell-based, human. Conditions: 48 h treatment. On the procedure: Cell cycle analysis by PI staining. MCF7 cells were treated with GTC365 for 48 h. Cells were trypsinized and washed with cold D-PBS. Cell pellets were subjected to 70% EtOH fixation at −20° C. overnight. Cells were incubated with RNase A and PI for 3 h at 37° C. and then kept in ice before FACS analysis (FACScanto II, BD Biosciences, San Jose, Calif.).
as §1

The test system of assay [4] is hTERT mRNA in melanoma cell line (UACC-903). The experiment in a line: qPCR of hTERT expression in G124A mutant melanoma cell line. It counts as cell-based, human. Conditions: 5 μM, 72 h. Here is the method: FIGS. 13A-13C are a set of graphs showingselective reduction in viability (A) and hTERT expression (B) in melanoma cells carrying hTERT core promotor mutations. NHM-002 (normal human melanocytes) and a G124A mutant cell line were treated with vehicle, 1.25, 2.5, and 5 μM GTC365 for 72 h. Viability was reduced in hTERT mutant melanoma cells by 50% (left). […] (C) Differential response to GTC365 in WT and promoter mutant cell lines.
Next, to assess the selectivity of GTC365 for hTERT-dependent cancer cells relative to normal precursorcells, we compared the effects of a range of […] on viability at 72 h in normal humanmelanocytes (NHM-002) relative to those of UACC-903, aG124A mutant (FIG. 13A). […] To confirm that the reduction in cell viability was aresult of hTERT downregulation, we performed reverse transcription and qPCR to measure the mRNA level of hTERT expression in cells treated with DMSO or 5 μMGTC365. hTERT expression was reduced by 41% in themelanoma cell line after 72 h but was undetectable in normalmelanocytes, even in the absence of GTC365 (FIG. 13B). Finally, tobroadly assess the selectivity of GTC365 for hTERT promotermutant versus WT cells, we conducted a 6-point 72 h MTSproliferation assay to determine EC50s in 14 additional melanoma cell lines with characterized TERT promoter status([…]) (FIG. 13C). […]

The values that follow come from patent publication US10556860B2, “hTERT modulators and methods of use” (Arizona Board of Regents on Behalf of the University of …, priority 2015, dated 2020).

Regarding `N=C(N)NCCCS(=O)(=O)Nc1ccc(Nc2c3ccccc3nc3cc([N+](=O)[O-])ccc23)cc1` [GTC365], the “cell death of cells showing SLP” value in the assay with MCF7 cells [1] was “underwent cell death”. Further, the “change in Tm of the i-motif” value in assay [2] is “little change in Tm”. Also, the “population in G2/M phase” value with MCF7 cells [3] (from 10% without compound) is recorded as 19%. Besides, the “population in S-phase” value in the assay with MCF7 cells [3] (from 33% without compound) amounted to 10%. Also, the “population in G0/G1 phase” value with MCF7 cells [3] (from 57% without compound) is recorded as 71%. The “reduction of hTERT expression (mRNA)” value in assay [4] is 41%.
